We go through three molecules from patent publication US10669284B2, “Fused thiazolopyrimidine derivatives as MNKS inhibitors” (LIFEARC, priority 2015, dated 2020).

One test has as its target ALK (Homo sapiens, UniProt Q9UM73). The experiment in a line: Kinase selectivity screen ALK. Particulars: read-out: % inhibition of ALK.
The target of another test is T1, SGK1 (Homo sapiens, UniProt O00141).
T1 sequence (O00141 1-431): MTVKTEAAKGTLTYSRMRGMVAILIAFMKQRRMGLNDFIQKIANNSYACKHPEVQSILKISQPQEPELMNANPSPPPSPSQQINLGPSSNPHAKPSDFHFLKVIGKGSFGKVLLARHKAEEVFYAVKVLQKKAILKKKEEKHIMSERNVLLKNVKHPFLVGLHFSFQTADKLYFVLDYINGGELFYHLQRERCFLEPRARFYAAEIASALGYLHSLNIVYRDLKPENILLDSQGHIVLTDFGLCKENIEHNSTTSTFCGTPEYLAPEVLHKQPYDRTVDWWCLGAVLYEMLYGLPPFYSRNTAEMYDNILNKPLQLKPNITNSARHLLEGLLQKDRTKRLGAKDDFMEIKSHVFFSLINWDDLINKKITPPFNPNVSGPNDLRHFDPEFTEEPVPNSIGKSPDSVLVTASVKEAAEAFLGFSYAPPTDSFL
The test can be described thus: Kinase selectivity screen SGK1. As to conditions: read-out: % inhibition of SGK1.

Another test addresses PAK4 (Homo sapiens, UniProt O96013). The test can be described thus: Kinase selectivity screen PAK4. As to conditions: read-out: % inhibition of PAK4.
A further test deals with T2, DYRK2 (Homo sapiens, UniProt Q92630).
T2 sequence (Q92630 1-601): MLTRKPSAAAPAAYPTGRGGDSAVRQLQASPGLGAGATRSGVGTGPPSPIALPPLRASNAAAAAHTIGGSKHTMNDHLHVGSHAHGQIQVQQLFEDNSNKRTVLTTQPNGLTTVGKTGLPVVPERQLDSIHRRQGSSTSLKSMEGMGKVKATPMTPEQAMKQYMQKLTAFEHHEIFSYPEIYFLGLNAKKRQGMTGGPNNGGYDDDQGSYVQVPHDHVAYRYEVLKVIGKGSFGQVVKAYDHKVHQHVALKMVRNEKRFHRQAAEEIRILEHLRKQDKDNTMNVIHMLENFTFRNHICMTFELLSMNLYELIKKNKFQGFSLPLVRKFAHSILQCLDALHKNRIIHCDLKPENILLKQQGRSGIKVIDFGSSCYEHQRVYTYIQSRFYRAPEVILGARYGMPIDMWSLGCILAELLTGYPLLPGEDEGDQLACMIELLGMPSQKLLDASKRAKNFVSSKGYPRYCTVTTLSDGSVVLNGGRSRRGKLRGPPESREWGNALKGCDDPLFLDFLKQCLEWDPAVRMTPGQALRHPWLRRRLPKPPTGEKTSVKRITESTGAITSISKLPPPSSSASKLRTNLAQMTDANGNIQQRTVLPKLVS
The test can be described thus: Kinase selectivity screen DYRK2. As to conditions: read-out: % inhibition of DYRK2.

Another test has as its target T3, TYRO3 (Homo sapiens, UniProt Q06418).
T3 sequence (Q06418 41-890): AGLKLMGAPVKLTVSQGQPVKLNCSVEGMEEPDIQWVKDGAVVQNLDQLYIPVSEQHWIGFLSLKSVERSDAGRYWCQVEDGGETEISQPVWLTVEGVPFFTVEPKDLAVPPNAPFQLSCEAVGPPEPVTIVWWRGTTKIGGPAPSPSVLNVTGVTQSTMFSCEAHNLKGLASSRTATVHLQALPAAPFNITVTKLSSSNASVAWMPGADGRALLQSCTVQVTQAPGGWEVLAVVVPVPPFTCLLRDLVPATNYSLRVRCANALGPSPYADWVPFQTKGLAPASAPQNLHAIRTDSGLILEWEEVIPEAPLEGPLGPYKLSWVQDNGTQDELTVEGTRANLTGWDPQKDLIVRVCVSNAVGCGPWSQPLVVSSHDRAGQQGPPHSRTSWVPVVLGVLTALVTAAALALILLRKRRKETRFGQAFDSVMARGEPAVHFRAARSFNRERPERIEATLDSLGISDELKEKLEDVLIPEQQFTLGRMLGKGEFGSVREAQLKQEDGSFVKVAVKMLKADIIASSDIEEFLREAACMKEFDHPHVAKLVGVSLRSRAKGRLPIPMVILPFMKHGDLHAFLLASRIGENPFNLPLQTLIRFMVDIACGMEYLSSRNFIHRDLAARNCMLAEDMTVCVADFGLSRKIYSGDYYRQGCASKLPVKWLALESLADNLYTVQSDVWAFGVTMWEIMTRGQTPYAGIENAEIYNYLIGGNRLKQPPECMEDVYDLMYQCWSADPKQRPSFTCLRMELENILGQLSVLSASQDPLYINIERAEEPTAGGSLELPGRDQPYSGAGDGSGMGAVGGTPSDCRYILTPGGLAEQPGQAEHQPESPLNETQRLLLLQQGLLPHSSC
The test can be described thus: Kinase selectivity screen TYRO3. Particulars: read-out: % inhibition of TYRO3.

A further test deals with EEF2K (Homo sapiens, UniProt O00418). The test can be described thus: Kinase selectivity screen EEF2K. Particulars: read-out: % inhibition of EEF2K.
The target in the next test is IGF1R (Homo sapiens, UniProt P08069). The experiment in a line: Kinase selectivity screen IGF1R. As to conditions: read-out: % inhibition of IGF1R.
Another test concerns the target NTRK1 (Homo sapiens, UniProt P04629). The experiment in a line: Kinase selectivity screen NTRK1. Particulars: read-out: % inhibition of NTRK1.
The target of the next test is CAMK2B (Homo sapiens, UniProt Q13554). The experiment in a line: Kinase selectivity screen CAMK2B. Particulars: read-out: % inhibition of CAMK2B.
A further test deals with PIP5K1A (Homo sapiens, UniProt Q99755). The experiment in a line: Kinase selectivity screen PIP5K1A. Particulars: read-out: % inhibition of PIP5K1A.
A further test has as its target RPS6KB1 (Homo sapiens, UniProt P23443). The test can be described thus: Kinase selectivity screen RPS6KB1. Particulars: read-out: % inhibition of RPS6KB1.
For the next test, the target named is CDK6/CCND3 (Homo sapiens, UniProt Q00534). The experiment in a line: Kinase selectivity screen CDK6/CCND3. As to conditions: read-out: % inhibition of CDK6/CCND3.
The next test addresses CDK9/CCNT1 (Homo sapiens, UniProt P50750). The experiment in a line: Kinase selectivity screen CDK9/CCNT1. As to conditions: read-out: % inhibition of CDK9/CCNT1.

Chain of CDK9/CCNT1 (P50750 whole entry, species assumed): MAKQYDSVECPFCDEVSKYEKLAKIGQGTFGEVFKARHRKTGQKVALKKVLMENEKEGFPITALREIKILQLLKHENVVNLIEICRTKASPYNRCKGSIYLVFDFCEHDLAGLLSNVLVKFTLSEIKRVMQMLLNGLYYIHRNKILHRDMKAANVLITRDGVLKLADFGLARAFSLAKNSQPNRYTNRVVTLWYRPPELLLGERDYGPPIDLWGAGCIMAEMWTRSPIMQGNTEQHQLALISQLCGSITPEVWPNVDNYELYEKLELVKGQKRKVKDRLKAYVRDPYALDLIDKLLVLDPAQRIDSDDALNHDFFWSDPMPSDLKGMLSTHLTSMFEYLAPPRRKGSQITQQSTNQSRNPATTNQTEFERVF
Chain of CDK9/CCNT1 (O60563 whole entry partner, species assumed): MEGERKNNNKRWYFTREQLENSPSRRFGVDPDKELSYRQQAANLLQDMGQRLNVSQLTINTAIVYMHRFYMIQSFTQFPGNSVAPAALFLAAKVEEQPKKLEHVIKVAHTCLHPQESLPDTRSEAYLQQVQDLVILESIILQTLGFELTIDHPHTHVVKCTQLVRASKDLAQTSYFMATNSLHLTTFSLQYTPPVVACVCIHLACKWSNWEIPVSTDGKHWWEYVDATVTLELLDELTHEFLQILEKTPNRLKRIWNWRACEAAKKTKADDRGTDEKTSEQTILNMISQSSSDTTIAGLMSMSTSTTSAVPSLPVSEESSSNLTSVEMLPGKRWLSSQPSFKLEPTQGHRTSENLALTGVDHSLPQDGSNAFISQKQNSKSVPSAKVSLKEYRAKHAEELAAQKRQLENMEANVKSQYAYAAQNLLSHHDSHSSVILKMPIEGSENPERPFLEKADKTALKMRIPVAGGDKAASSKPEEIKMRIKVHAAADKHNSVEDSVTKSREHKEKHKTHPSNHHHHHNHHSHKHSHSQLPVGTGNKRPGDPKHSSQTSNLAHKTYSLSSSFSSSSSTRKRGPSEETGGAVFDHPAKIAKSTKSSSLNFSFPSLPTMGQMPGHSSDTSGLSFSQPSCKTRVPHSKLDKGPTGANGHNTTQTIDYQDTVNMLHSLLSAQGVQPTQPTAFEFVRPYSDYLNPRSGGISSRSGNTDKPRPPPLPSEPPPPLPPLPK
Chain of EEF2K (O00418 whole entry): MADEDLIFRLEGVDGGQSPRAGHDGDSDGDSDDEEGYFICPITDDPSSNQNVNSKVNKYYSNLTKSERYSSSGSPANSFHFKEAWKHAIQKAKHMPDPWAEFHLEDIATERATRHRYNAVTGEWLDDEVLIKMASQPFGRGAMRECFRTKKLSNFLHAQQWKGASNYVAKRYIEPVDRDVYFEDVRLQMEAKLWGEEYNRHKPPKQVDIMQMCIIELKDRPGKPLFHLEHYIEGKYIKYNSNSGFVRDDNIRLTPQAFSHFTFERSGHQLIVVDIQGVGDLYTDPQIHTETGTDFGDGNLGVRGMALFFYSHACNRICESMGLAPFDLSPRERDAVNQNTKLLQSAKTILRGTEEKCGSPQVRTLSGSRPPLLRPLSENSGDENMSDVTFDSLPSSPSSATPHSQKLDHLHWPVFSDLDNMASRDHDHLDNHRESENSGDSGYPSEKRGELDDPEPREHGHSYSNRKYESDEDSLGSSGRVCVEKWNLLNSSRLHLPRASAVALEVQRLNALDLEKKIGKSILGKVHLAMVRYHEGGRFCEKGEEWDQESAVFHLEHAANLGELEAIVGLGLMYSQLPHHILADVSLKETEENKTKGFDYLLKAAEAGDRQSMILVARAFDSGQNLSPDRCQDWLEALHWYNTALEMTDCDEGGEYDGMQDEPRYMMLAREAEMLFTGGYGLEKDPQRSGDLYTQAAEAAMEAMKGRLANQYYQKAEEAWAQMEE
Chain of IGF1R (P08069 31-1367): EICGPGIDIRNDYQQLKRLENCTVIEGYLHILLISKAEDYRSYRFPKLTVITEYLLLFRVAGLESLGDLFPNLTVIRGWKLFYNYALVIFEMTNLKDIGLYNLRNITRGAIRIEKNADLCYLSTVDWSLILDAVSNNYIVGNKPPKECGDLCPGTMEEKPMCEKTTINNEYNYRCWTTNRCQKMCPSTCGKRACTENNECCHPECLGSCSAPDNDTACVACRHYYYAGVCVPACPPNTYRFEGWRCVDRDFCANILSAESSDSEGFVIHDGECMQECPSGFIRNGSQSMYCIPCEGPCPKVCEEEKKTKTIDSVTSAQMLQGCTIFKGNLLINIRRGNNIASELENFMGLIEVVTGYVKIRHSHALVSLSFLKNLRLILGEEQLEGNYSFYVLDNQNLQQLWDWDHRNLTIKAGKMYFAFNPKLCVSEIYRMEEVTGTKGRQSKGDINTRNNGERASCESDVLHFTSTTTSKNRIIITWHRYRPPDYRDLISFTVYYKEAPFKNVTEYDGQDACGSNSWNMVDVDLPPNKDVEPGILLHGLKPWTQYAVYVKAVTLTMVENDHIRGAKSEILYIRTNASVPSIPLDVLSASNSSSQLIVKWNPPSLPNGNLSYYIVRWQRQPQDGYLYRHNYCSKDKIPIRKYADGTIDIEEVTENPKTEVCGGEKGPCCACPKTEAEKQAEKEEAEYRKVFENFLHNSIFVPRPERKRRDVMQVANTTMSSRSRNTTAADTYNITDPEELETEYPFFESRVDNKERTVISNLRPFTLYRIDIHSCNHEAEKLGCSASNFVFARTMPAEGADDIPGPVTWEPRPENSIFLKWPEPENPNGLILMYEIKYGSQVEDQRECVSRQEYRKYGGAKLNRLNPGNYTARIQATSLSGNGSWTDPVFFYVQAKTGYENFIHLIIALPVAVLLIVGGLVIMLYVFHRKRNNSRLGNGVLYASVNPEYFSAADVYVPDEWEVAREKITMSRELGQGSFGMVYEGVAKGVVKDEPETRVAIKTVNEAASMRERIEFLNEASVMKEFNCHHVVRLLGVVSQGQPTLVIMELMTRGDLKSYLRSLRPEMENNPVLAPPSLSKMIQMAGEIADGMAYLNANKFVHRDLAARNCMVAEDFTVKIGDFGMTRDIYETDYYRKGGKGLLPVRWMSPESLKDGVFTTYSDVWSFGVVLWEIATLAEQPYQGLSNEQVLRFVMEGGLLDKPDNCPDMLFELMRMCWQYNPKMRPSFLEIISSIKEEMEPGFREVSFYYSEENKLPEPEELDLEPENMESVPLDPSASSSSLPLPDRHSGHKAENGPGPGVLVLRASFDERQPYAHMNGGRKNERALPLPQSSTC
Chain of NTRK1 (P04629 33-796, species assumed): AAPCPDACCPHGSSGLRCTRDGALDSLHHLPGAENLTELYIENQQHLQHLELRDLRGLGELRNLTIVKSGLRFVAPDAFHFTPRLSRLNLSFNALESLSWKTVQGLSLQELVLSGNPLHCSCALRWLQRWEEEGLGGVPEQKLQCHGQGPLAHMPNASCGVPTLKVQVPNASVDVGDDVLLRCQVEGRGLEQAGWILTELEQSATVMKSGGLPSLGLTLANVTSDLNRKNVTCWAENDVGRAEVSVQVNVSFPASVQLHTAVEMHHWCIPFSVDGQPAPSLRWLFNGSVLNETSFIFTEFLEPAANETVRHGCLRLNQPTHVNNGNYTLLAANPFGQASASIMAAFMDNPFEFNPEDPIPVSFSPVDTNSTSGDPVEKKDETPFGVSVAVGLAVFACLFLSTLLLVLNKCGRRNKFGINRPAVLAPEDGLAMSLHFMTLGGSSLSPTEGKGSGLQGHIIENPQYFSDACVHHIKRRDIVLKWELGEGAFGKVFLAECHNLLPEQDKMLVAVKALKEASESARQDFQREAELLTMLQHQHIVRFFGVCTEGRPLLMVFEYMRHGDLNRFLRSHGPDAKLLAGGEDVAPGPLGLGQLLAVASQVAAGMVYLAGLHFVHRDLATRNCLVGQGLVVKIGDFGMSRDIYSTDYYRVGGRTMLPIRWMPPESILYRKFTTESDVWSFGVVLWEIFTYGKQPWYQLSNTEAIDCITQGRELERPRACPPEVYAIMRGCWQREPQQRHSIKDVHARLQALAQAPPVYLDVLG
Chain of CAMK2B (Q13554 whole entry, species assumed): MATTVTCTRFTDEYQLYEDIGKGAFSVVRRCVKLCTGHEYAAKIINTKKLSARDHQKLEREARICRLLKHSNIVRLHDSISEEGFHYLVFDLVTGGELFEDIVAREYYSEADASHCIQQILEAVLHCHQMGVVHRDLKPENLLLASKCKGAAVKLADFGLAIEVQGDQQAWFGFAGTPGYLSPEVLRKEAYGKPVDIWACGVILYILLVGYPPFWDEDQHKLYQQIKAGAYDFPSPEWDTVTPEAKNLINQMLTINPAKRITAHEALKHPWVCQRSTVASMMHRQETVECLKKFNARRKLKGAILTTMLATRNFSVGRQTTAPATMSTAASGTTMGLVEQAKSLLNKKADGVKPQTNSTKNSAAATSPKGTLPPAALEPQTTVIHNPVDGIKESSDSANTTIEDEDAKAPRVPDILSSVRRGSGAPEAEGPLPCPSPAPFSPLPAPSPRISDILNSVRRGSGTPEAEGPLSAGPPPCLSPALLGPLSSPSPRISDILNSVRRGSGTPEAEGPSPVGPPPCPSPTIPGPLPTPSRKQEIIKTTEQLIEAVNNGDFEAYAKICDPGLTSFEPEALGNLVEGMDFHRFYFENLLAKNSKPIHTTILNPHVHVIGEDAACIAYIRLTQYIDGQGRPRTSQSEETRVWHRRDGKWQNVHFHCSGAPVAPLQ

Turning to `CN(C)CCCNC(=O)c1nc2c(N3CCc4cc(F)ccc43)ncnc2s1` [Example 64, N-[3-(dimethylamino)propyl]-7-(5-fluoroindolin-1-yl)thiazolo[5,4-d]pyrimidine-2-carboxamide], the inhibition at 1 µM on ALK is 3%; on SGK1, 41%; at PAK4, 4%; at DYRK2 it was 44%; at TYRO3, 0%; at EEF2K, 0%. Also, the inhibition at 1 µM on IGF1R amounted to 0%; at NTRK1, 5%; on CAMK2B, 57%; at PIP5K1A, 0%; on RPS6KB1, 0%; at CDK6/CCND3, 9%. For the same molecule, the inhibition at 1 µM on CDK9/CCNT1 was 4%.
Take `CC(C)Oc1cc(F)ccc1Nc1ncnc2sc(C(=O)NCC3CCNCC3)nc12` [Example 10, 7-(4-fluoro-2-isopropoxy-anilino)-N-(4-piperidylmethyl)thiazolo[5,4-d]pyrimidine-2-carboxamide]: the inhibition at 1 µM was 10% at ALK; 14% at SGK1; 15% on PAK4; 7% on DYRK2; 0% on TYRO3; 4% at EEF2K. In addition, the inhibition at 1 µM was 12% on IGF1R; 10% at NTRK1; 2% on CAMK2B; 2% at PIP5K1A; 0% at RPS6KB1; 3% on CDK6/CCND3. For the same molecule, the inhibition at 1 µM at CDK9/CCNT1 turned out to be 2%.
With `O=C(NCC1CCNCC1)c1nc2c(N3CCc4cc(F)ccc43)ncnc2s1` [Example 58, 7-(5-fluoroindolin-1-yl)-N-(4-piperidylmethyl)thiazolo[5,4-d]pyrimidine-2-carboxamide], the inhibition at 1 µM at ALK turned out to be 7%; at SGK1, 24%; at PAK4 it was 0%; at DYRK2, 21%; at TYRO3, 20%; at EEF2K, 0%. Besides, the inhibition at 1 µM on IGF1R came out at 11%; at NTRK1 it was 0%; on CAMK2B it was 17%; on PIP5K1A it was 1%; on RPS6KB1, 0%; on CDK6/CCND3, 0%. In addition, the inhibition at 1 µM on CDK9/CCNT1 is 11%.
